Measurements taken from article PMC8110993, “Structure and antimicrobial activity of NCR169, a nodule-specific cysteine-rich peptide of Medicago truncatula” (Scientific Reports, 2021).
Like-named read-outs stand apart in the source and are kept apart here. Where a SMILES comes first, the peptide text is derived from it. Bridges are numbered along the chain shown (N, C = ends). Where no end group is shown, it is not given here.

Columns and labels:
Escherichia coli K-12 = assay type: cell-based; settings: for IC100: E. coli K-12, drop plate method, 2 h treatment at room temperature, 5 mM HEPES-KOH pH 7.0
Description: (§1) Antimicrobial tests were performed using the drop plate method[12],[47]. Bacterial strains in the logarithmic phase (OD600 = 0.5–0.8) were diluted with 5 mM HEPES–KOH (pH 7.0) to a bacterial culture value of 1 × 10^6 CFU/mL. At OD600 = 0.1, the concentrations of S. meliloti and E. coli K-12 cells were 6.4 × 10^6 CFU/mL and 5.2 × 10^7 CFU/mL, respectively. Equal volumes of bacteria (S. meliloti or E. coli K-12) and NCR169 peptide or PMB were mixed and incubated at room temperature for 2 h. For antimicrobial tests against S. meliloti, 10 μL of each serially diluted mixture was spotted on MHB plates with 2.5 mM MgCl2, and 2.5 mM CaCl2, followed by incubation at 30 °C for 40 h. For antimicrobial tests against E. coli K-12, 10 μL of each mixture was spotted on Mueller Hinton Broth (MHB; MilliporeSigma, Burlington, MA, USA) plates followed by incubation at 30 °C for 13 h.
(§2) To estimate survival rate, the peptide-treated bacterial mixtures were serially diluted with the buffer before spotting on the plate. Bacterial survival rates were calculated using the colony numbers of each bacterial strain with or without peptide treatment. All experiments were repeated at least four times.
(§3) Supplementary Table S2. Antimicrobial activities of NCR169 peptides against E. coliK-12 and S. meliloti.
(§4) Peptide IC50 (μM)* IC100 (μM)
(§5) E. coli K-12 S. meliloti E. coli K-12 S. meliloti
(§6) IC50: 50% inhibitory concentration (Calculated using “Dose-response curve” fitting)

Sinorhizobium meliloti = assay type: cell-based; settings: for IC100: drop plate method, 2 h treatment at room temperature, 5 mM HEPES-KOH pH 7.0
Description: as §1, §2, §3, §4, §5, §6

[1] = Liposome sedimentation (binding) assay
Description: (§7) Figure 3 NCR169 binds to the bacterial phospholipid. (A) Circular dichroism (CD) spectra of NCR169 peptides (NCR169-ox1 and -ox2). NCR169 peptides (20 μM) were dissolved in the following solvents: water (No additives), 2 mM DMPC liposomes, 2 mM DMPG liposomes or 30% 2,2,2-trifluoroethanol (TFE). (B) The results of liposome binding assays. The NCR169 peptide (20 μM) was incubated with buffer (No lipid), 2 mM DMPC liposomes, or 2 mM DMPG liposomes. After incubation at room temperature for 30 min, the mixture was ultra-centrifuged at 200,000×g. The supernatant and pellet fractions were analyzed by Tricine-SDS-PAGE. The no lipid sample before ultra-centrifugation was used as the input.
(§8) The phospholipids DMPC and DMPG were purchased from Avanti Polar Lipids (Alabaster, AL, USA). An appropriate amount of phospholipid was dissolved in chloroform and dried under vacuum for 1 h. The lipid film was suspended in water, vortexed, and sonicated for 30 min to form the liposomes.
(§9) The assay was carried out as described previously. Briefly, equal volumes of NCR169 peptide (20 μM) and liposomes (2 mM) were mixed in assay buffer (20 mM HEPES, 150 mM NaCl, pH 7.0) and incubated for 30 min at room temperature, followed by ultracentrifugation at 200,000×g for 15 min at 20 °C. After centrifugation, the supernatant was collected, and the pellet was dissolved in the same volume of assay buffer containing 0.2% Triton X-100. The supernatant and pellet fractions were subjected to Tricine-SDS-PAGE, and peptides were detected by Coomassie Brilliant Blue staining.
Supplementary Figure S11. NCR 169 M binds to the bacterial phospholipid. (A) Circular dichroism (CD) spectra of NCR169M (20 μM) in water (No additive), 2 mM dimyristoylphosphatidylcholine (DMPC) liposomes, 2 mM dimyristoylphosphatidylglycerol (DMPG) liposomes or 30% 2,2,2-trifluoroethanol (TFE). (B) The result of liposome binding assay. NCR169M (20 μM) was incubated with buffer (No lipid),2 mM DMPC liposomes, or 2 mM DMPG liposomes . After incubation at room temperature for 30 min, the mixture was ultra-centrifuged at 200,000 × g. The supernatant and pellet fractions were analyzed by Tricine-SDS-PAGE. The no lipidsample before ultra-centrifugation was used as the input.
(also on this page, place not known: [θ] (103 deg cm2 dmol-1) markerkDa input No lipid sup ppt sup ppt sup ppt NCR169M lipid), DMPC 2 DMPG liposomes. lipid sample)
(1 picture or pasted object on this page, not shown here)
Supplementary Figure S12. The results of liposome binding assays. (A) NCR169-derived peptide (10 μM) was incubated with buffer (No lipid), 1 mM DMPC liposomes, 1 mM DMPG liposomes. After incubation at room temperature for 30 min, the mixture was ultra-centrifuged at 200,000 × g. The supernatant and pellet fractions were analyzed by Tricine-SDS-PAGE. The no lipid sample before ultra-centrifugation was used as the input. Arrows indicate weak bands. (B) […]

[2] = Liposome sedimentation (binding) assay; settings: peptide 20 μM, 2 mM DMPC liposomes, 20 mM HEPES, 150 mM NaCl, pH 7.0, 30 min room temperature, 200,000×g, supernatant and pellet by Tricine-SDS-PAGE
Description: as §7, §8
as §9, with “After centrifugation, the supernatant was collected, and the pellet was dissolved in the same volume of assay buffer containing 0.2% Triton X-100.” left out

[3] = assay type: physicochemical
Description: To confirm it, we examined the solubility of NCR169 in various solvents, HEPES (salt-free), HEPES with salt (50 to 200 mM NaCl or KCl), and PBS. […] In other words, the disulfide bonds of NCR169 contribute to its solubility.
Supplementary Figure S3. Solubility assessment of NCR169. The same amount of NCR169 was dissolved in various solvents. After incubation at room temperature for 1 h, the solution was centrifuged at 20,000 × g and the supernatant was analyzed by Tricine-SDS-PAGE. […]

[4] = assay type: physicochemical; settings: pH 2.2
Description: We further measured the circular dichroism (CD) spectra of NCR169-ox1 and -ox2 under various pH conditions to confirm their structural stability against pH (Supplementary Fig. S4). […] Because acidic pH is preferable for amide proton detection in NMR experiments, we performed the following solution NMR study at lower pH.
CD spectra were recorded within a wavelength range of 270–195 nm using a JASCO J-820 spectropolarimeter (JASCO International Co., Ltd., Tokyo, Japan). A quartz cell with a light path length of 1 mm was used for the measurements. The sample temperature was maintained at 25 °C during the measurements.
Supplementary Figure S4. Circular dichroism (CD) spectra of NCR169-ox1 and -ox2 under
various pH conditions. The signal reflectingβ-sheet structure (218 nm) was hardly changed.

[5] = peptide 20 μM, 2 mM DMPG liposomes, 20 mM HEPES, 150 mM NaCl, pH 7.0, 30 min room temperature, 200,000×g, supernatant and pellet by Tricine-SDS-PAGE
[6] = NCR169-derived peptide 10 μM, 1 mM DMPG liposomes, 30 min room temperature, 200,000×g, Tricine-SDS-PAGE

Row | Compound | IC100 (Escherichia coli K-12) | IC50 (Escherichia coli K-12; K-12, 2 h, pH 7) | IC50 (Sinorhizobium meliloti; 2 h, pH 7) | IC100 (Sinorhizobium meliloti; S. meliloti) | Binding to DMPG liposomes [1, 5] | Binding to DMPC liposomes [2] | Solubility in various solvents [3] | Structural stability against pH (CD spectra) [4] | Binding to DMPG liposomes [1, 6] | Antimicrobial activity (in words) (Escherichia coli K-12; E. coli K-12, various peptide concentrations) | Antimicrobial activity (in words) (Sinorhizobium meliloti; S. meliloti, various peptide concentrations) | IC50 (Escherichia coli K-12; E. coli K-12, 1 × 10^6 CFU/mL in 5 mM HEPES-KOH pH 7.0, 2 h at room temperature, spotted on MHB plates, 30 °C 13 h, survival rate from colony numbers, dose-response curve fitting, repeated at least four times, read-out: IC50 (50% inhibitory concentration)) | IC50 (Sinorhizobium meliloti; S. meliloti, 1 × 10^6 CFU/mL in 5 mM HEPES-KOH pH 7.0, 2 h at room temperature, spotted on MHB plates with 2.5 mM MgCl2 and 2.5 mM CaCl2, 30 °C 40 h, dose-response curve fitting, repeated at least four times, read-out: IC50 (50% inhibitory concentration))
1 | CC[C@H](C)[C@@H]1NC(=O)CNC(=O)[C@@H](NC(=O)[C@H](Cc2ccc(O)cc2)NC(=O)[C@H](CCCCN)NC(=O)[C@@H](NC(=O)[C@H](Cc2c[nH]cn2)NC(=O)CNC(=O)[C@@H](NC(=O)[C@H](CC(=O)O)NC(=O)[C@H](CCC(=O)O)NC(=O)CN)[C@@H](C)CC)[C@@H](C)CC)CSSC[C@@H](C(=O)N[C@@H](Cc2ccc(O)cc2)C(=O)N[C@@H](CCCCN)C(=O)N[C@@H](CO)C(=O)N[C@@H](CCCCN)C(=O)N[C@@H](CCCCN)C(=O)N2CCC[C@H]2C(=O)N[C@@H](CC(C)C)C(=O)N[C@@H](Cc2ccccc2)C(=O)N[C@@H](CCCCN)C(=O)N[C@H](C(=O)N[C@@H](Cc2c[nH]c3ccccc23)C(=O)N[C@@H](CCCCN)C(=O)N[C@H]2CSSC[C@@H](C(=O)N[C@H](C(=O)N[C@@H](CC(C)C)C(=O)N[C@@H](Cc3c[nH]c4ccccc34)C(=O)N[C@@H](Cc3ccc(O)cc3)C(=O)N[C@@H](CCCCN)C(=O)O)C(C)C)NC(=O)[C@H](C(C)C)NC(=O)[C@H](CC(N)=O)NC(=O)[C@H](CCC(=O)O)NC(=O)[C@H](C(C)C)NC2=O)[C@@H](C)CC)NC(=O)[C@H](CC(=O)O)NC(=O)[C@H](CC(=O)O)NC(=O)[C@H](C(C)C)NC1=O [NCR169-ox1] (H-GEDIGHIKYCGIVDDCYKSKKPLFKIWKCVENVCVLWYK-OH; disulfide 10-16, 29-34) | 16 µM | 410 nM | 6400 nM | 128 µM | bound to the DMPG liposomes | Neither NCR169-ox1 nor -ox2 bound | soluble in all conditions | retained their conformations under acidic and neutral conditions |  |  |  |  | 
2 | CC[C@H](C)[C@H](NC(=O)[C@H](CCCCN)NC(=O)[C@H](Cc1ccccc1)NC(=O)[C@H](CC(C)C)NC(=O)[C@@H]1CCCN1C(=O)[C@H](CCCCN)NC(=O)[C@H](CCCCN)NC(=O)[C@H](CO)NC(=O)[C@H](CCCCN)NC(=O)[C@H](Cc1ccc(O)cc1)NC(=O)CN)C(=O)N[C@@H](Cc1c[nH]c2ccccc12)C(=O)N[C@@H](CCCCN)C(=O)N[C@H]1CSSC[C@@H](C(=O)N[C@H](C(=O)N[C@@H](CC(C)C)C(=O)N[C@@H](Cc2c[nH]c3ccccc23)C(=O)N[C@@H](Cc2ccc(O)cc2)C(=O)N[C@@H](CCCCN)C(=O)O)C(C)C)NC(=O)[C@H](C(C)C)NC(=O)[C@H](CC(N)=O)NC(=O)[C@H](CCC(=O)O)NC(=O)[C@H](C(C)C)NC1=O [NCR169CL-ox] (H-GYKSKKPLFKIWKCVENVCVLWYK-OH; disulfide 14-19) | 0.5 µM | 140 nM | 570 nM | > 128 µM |  |  |  |  | bound to DMPG liposomes |  |  |  | 
3 | CC[C@H](C)[C@H](NC(=O)[C@H](CCCCN)NC(=O)CN)C(=O)N[C@@H](Cc1c[nH]c2ccccc12)C(=O)N[C@@H](CCCCN)C(=O)N[C@H]1CSSC[C@@H](C(=O)N[C@H](C(=O)N[C@@H](CC(C)C)C(=O)N[C@@H](Cc2c[nH]c3ccccc23)C(=O)N[C@@H](Cc2ccc(O)cc2)C(=O)N[C@@H](CCCCN)C(=O)O)C(C)C)NC(=O)[C@H](C(C)C)NC(=O)[C@H](CC(N)=O)NC(=O)[C@H](CCC(=O)O)NC(=O)[C@H](C(C)C)NC1=O [NCR169CS-ox] (H-GKIWKCVENVCVLWYK-OH; disulfide 6-11) | 64 µM | 5600 nM | 45000 nM | > 128 µM |  |  |  |  | bound to DMPG liposomes |  |  |  | 
4 | CC[C@H](C)[C@@H]1NC(=O)CNC(=O)[C@@H](NC(=O)[C@H](Cc2ccc(O)cc2)NC(=O)[C@H](CCCCN)NC(=O)[C@@H](NC(=O)[C@H](Cc2c[nH]cn2)NC(=O)CNC(=O)[C@@H](NC(=O)[C@H](CC(=O)O)NC(=O)[C@H](CCC(=O)O)NC(=O)CN)[C@@H](C)CC)[C@@H](C)CC)CSSC[C@@H](C(=O)N[C@@H](Cc2ccc(O)cc2)C(=O)O)NC(=O)[C@H](CC(=O)O)NC(=O)[C@H](CC(=O)O)NC(=O)[C@H](C(C)C)NC1=O [NCR169N-ox] (H-GEDIGHIKYCGIVDDCY-OH; disulfide 10-16) | > 128 µM |  |  | > 128 µM |  |  |  |  | did not | no antimicrobial activity | no antimicrobial activity |  | 
5 | Polymyxin B [PMB, reference compound] | 0.031 µM |  |  | 0.25 µM |  |  |  |  |  |  |  | 18 nM | 92 nM
6 | YKSKKPLFKIWK [NCR169M] | 0.5 µM | 83 nM | 240 nM | 2 µM | bound to DMPG liposomes |  |  |  |  |  |  |  | 
